Results taken from patent US9918972B2, “Treatment of leukemia with artemisinin derivatives and combinations with other antineoplastic agents” (UNIVERSITY OF MARYLAND, BALTIMORE, priority 2014, dated 2018).
Counter-ions that a name gives are not always drawn.

Assays:
KOPN8 cells = experiment: alamarBlue cytotoxicity assay, single-drug IC50, 48 h; assay type: cell-based; conditions: Homo sapiens, KOPN-8
Experimental: Cytotoxicity was assessed using alamarBlue assays (Life Technologies, Grand Island, N.Y.; used for IC50 determinations and all drug combinations except the drug combination screen (method described separately below)) or Trypan Blue dye exclusion (Life Technologies, Grand Island, N.Y.; used only for experiments using inhibitors that could interfere with alamarBlue assay performance (NAC, Tiron, DFO)).
Cell lines were seeded in 96-well tissue culture plates at 10^4 cells per well (myeloid leukemia lines) or 2×10^4 cells per well (lymphoid leukemia lines) in culture medium, followed by addition of drugs at the indicated concentrations. 2-4 wells per plate containing media-only were included for background subtraction. Peripheral wells were filled with sterile water to minimize the effects of evaporation.
MOLM14 cells were treated with each of these drugs, alone and in combination with ART-838 or AS at an equipotency ratio based on the IC50s for each drug (Table 1). In Table 1, KOPN8 and MOLM14 cell lines were treated with a range of concentrations of each drug for 48 h then cytotoxicity was measured via alamarBlue assay. Results were normalized to cells treated with vehicle (≦0.5% DMSO) alone. IC50s were calculated using CompuSyn software and represent the means of at least three experiments performed in triplicate. Addition of ART-838 or AS enhanced the cytotoxicity of all six tested drugs across a range of concentrations (FIG. 2). Drug interactions were typically most favorable (more additive/synergistic or less antagonistic) at higher doses.

MOLM14 cells [1] = experiment: ROS - mitochondrial superoxide (MitoSOX flow cytometry); assay type: cell-based, human; conditions: 16 h; for effect on AS-induced superoxide generation: MOLM14, combined with AS, 2.25x IC50s
Experimental: FIGS. 4A-4D. […] CIs were computed as described above. CI<1 indicates synergy, CI=1, additivity, CI>1, antagonism. […] Cells were then loaded with 5 μM MitoSox for 30 min, washed, and analyzed by flow cytometry for MitoSox fluorescence (indicating mitochondrial superoxide) in the FL2 channel. […] Error bars represent the SEM of three independent experiments.

[2] = test system: MOLM14-luc AML xenografts; experiment: Subcutaneous MOLM14-luc xenograft growth in NSG mice (ARA with ART-838); assay type: in vivo; conditions: ARA 40 mg/kg/d i.p. plus ART-838 200 mg/kg/d p.o.
Experimental: FIG. 14. ART-838 enhanced in vivo efficacy of ARA against acute leukemia xenografts in NSG mice. NSG mice transplanted subcutaneously with luciferase labeled MOLM14 (MOLM14-luc) AML cells, were treated with vehicle, ARA (“Ara-C”), ART-838 or ART-838 plus ARA starting on day 17 after transplantation. Ara-C (40 mg/kg/d) was given i.p. on day 17, 18, 19, 20, 21 and 24. ART-838 (200 mg/kg/d) was given p.o. on day 17, 20 and 24. Mouse tumors were measured on the indicated days.
Highly immunodeficient NSG mice, obtained originally from Jackson Laboratory (Bar Harbor, Me.), were bred and housed in the UMSOM animal facilities, and handled in a laminar flow hood under aseptic conditions. All experiment procedures and animal care were in compliance with the NIH guidelines for the Care and Use of Laboratory Animals and approved by the UMSOM Institutional Animal Care and Use Committee. ART-838 were formulated in Tween 80:ethanol (7:3, v:v) and diluted 1:10 in filtered deionized water immediately before administration. […] Mice were monitored daily and euthanized when tumors reached an estimated mass of 2000 mg (using the formula: [length×width2]/2, assuming density=1 mg/mm3).
The anti-leukemic efficacy of ART-838 plus ARA was tested in NSG mice transplanted subcutaneously with luciferase labeled MOLM14 (MOLM14-luc) AML cells. […] Mouse tumors were measured with calipers on the indicated days.

MOLM14 cells [3] = experiment: Preliminary cytotoxicity of ROS/iron inhibitors (Trypan Blue dye exclusion assays); assay type: cell-based, human; conditions: read-out: approximate 48-hour IC50
MOLM14 cells [4] = experiment: alamarBlue cytotoxicity assay, single-drug IC50, 48 h; assay type: cell-based, human; conditions: Homo sapiens, MOLM-14; MOLM14, single drug, 48 h, alamarBlue
Experimental: Peripheral wells were filled with sterile water to minimize the effects of evaporation. […] Results were normalized to cells treated with vehicle (≦0.5% DMSO) alone. IC50s were calculated using CompuSyn software and represent the means of at least three experiments performed in triplicate.

MOLM14 cells [5] = experiment: Drug combination analysis (Chou and Talalay), simultaneous 48 h treatment, alamarBlue; assay type: cell-based, human; conditions: MOLM14, combined with AS, 2.25x single-drug IC50s
Experimental: FIGS. 2A-2B. ART-838 or AS enhanced the cytotoxicity of all six antileukemic drugs tested in MOLM14. […] Each experiment was performed three times in triplicate, and error bars represent the SEM. All panels have error bars but some are too small to be visible. Combination indices (CI) were computed for each drug combination using CompuSyn software, based on the Median Effect Principle and the CI theorem of Chou-Talalay, wherein CI=1 indicates additivity, CI<1 synergism, and CI>1 antagonism.
FIGS. 4A-4D. Effects of ART-838- and AS-containing drug combinations on MOLM14 growth and superoxide generation. […]. CIs were computed as described above. CI<1 indicates synergy, CI=1, additivity, CI>1, antagonism. […] Cells were then loaded with 5 μM MitoSox for 30 min, washed, and analyzed by flow cytometry for MitoSox fluorescence (indicating mitochondrial superoxide) in the FL2 channel. Mean fluorescence intensity (MFI) was normalized to that of vehicle control (0.5% DMSO) with no pretreatment (100%, lower dotted lines). Upper dotted lines show MFI of ART-838- or AS-treated cells. Error bars represent the SEM of three independent experiments.
For each two-drug pair, dose-response curves were generated for each drug individually and for the two drugs combined. […]. […]

MOLM14 AML xenografts = experiment: Subcutaneous MOLM14 xenograft growth in NSG mice (SOR with AS); assay type: in vivo; conditions: SOR plus AS p.o.
Experimental: FIG. 15. AS enhanced in vivo efficacy of Sorafenib (SOR) against acute leukemia xenografts in NSG mice. […] Drug or vehicle were given p.o. on day 3-7, 17-21, and 31-35 when possible. Mouse tumors were measured on the indicated days.
The NSG mice were obtained, maintained and handled as described in the paragraph immediately above. AS was also formulated in Tween 80:ethanol (7:3, v:v) and diluted 1:10 in filtered deionized water immediately before administration. For the human AML xenograft model, 6-12-week-old male NSG mice (>20 g) were transplanted sc with MOLM14 cells on day 0 and drug-treated via oral gavage, as specified in legend. Mice were monitored daily and euthanized when tumors reached an estimated mass of 2000 mg as described in the paragraph immediately above.
Palpable tumors appeared about 2 weeks after transplantation.

Row | Structure (SMILES) | IC50 (KOPN8 cells) | effect on AS-induced superoxide generation (MOLM14 cells [1]) | IC50 (MOLM14 cells [4]) | further results
1 | Nc1ccn([C@@H]2O[C@H](CO)[C@@H](O)[C@@H]2O)c(=O)n1 [ARA, cytarabine] | 0.073 µM | further enhanced | – | tumor growth (tumor size on day 24) [2]: inhibited tumor growth substantially more than did either drug alone
2 | CC(=O)N(O)CCCCCNC(=O)CCC(=O)N(O)CCCCCNC(=O)CCC(=O)N(O)CCCCCN [DFO, deferoxamine mesylate] | – | – | – | IC50 (MOLM14 cells [3]; Homo sapiens, MOLM-14, 48 h): ~11 µM
3 | COc1cccc2c1C(=O)c1c(O)c3c(c(O)c1C2=O)C[C@@](O)(C(=O)CO)C[C@@H]3O[C@H]1C[C@H](N)[C@H](O)[C@H](C)O1 [DOX, doxorubicin] | 0.03 µM | further enhanced | 0.079 µM | effect on ART-838-induced superoxide generation (MOLM14 cells [1]; MOLM14, combined with ART-838, 2.25x IC50s): further enhanced
4 | C[C@]12O[C@H](C[C@]1(O)CO)n1c3ccccc3c3c4c(c5c6ccccc6n2c5c31)CNC4=O [LES, lestaurtinib] | 0.045 µM | – | 0.003 µM | Combination index (CI), interaction (MOLM14 cells [5]): 1.5
5 | CC(=O)N[C@@H](CS)C(=O)O [NAC] | – | – | – | IC50 (MOLM14 cells [3]; MOLM14, preliminary experiments): ~25000 µM
6 | CNC(=O)c1cc(Oc2ccc(NC(=O)Nc3ccc(Cl)c(C(F)(F)F)c3)cc2)ccn1 [SOR, sorafenib] | 4.2 µM | reduced | 0.004 µM | tumor growth (tumor size on day 24) (MOLM14 AML xenografts): inhibited tumor growth substantially more than did either drug alone
7 | O=S(=O)(O)c1cc(O)c(O)c(S(=O)(=O)O)c1 [Tiron] | – | – | – | IC50 (MOLM14 cells [3]; Homo sapiens, MOLM-14, 48 h, MOLM14, preliminary experiments): ~1000 µM
